For one assay, the system named is hydrochloric acid ulcer. As to the kind of experiment: Action against hydrochloric acid ulcer. In kind it is in vivo, Wistar-strain male rats. The conditions noted are these: po, 1 h; rat, 100 mg/kg peroral administration, 30 min before 0.6 N-HCl; ulcer area; read-out: Anti-ulcer action (hydrochloric acid ulcer model), Inhibition rate against non-administered animal. Here is the method:
(1) Action against hydrochloric acid ulcer Wistar-strain male rats (weight 180 g, 6 to 7 rats per group) were starved for 18 hours and left without water for 4 hours before the test. The test drug was formed into an aqueous solution or suspended in an aqueous solution of 0.5% carboxymethyl cellulose and administered orally at a volume of 0.5 ml/100 g, and 30 minutes after administration, 1 ml of 0.6 N-HCl was orally administered. One hour after the administration, the stomach was excised and injected with 5 ml of 5% formalin solution. After the formalin fixation for 10 min., the stomach was cut open along the greater curvature, and the area (mm^2) of an ulcer generated at the corpus of stomach was measured. The total sum of the area of ulcer generated per rat was compared with that of the control group. The control group was administered with water or a 0.5% aqueous carboxymethyl cellulose solution. The Ulcer Index was determined as the inhibition ratio (%).

The subject of assay [1] is restrictive water immersion stress ulcer. In words: Action against restrictive water immersion stress ulcer. In kind it is in vivo, Wistar-strain male rats. The conditions noted are these: po; rat, 100 mg/kg peroral administration, 7 hours water immersion stress at 23° C.; ulcer length; read-out: Anti-ulcer action (stress ulcer), Inhibition rate against non-administered animal. The protocol:
(2) Action against restrictive water immersion stress ulcer Wistar-strain male rats (weight 180 g, 6 to 8 rats per group) were starved for 18 hours before the test. The test drug was administered orally by the same method as used in (1). Thirty minutes after the administration, the rats were placed in a restrictive stress cage, and immersed to the xiphoideus process of the rat in water of 23° C. After the loading stress for 7 hours, the stomach was excised and, fixed in formalin by the same method as used in (1), and the length (mm) of the ulcer was measured. The total length of an ulcer generated per rat was compared with that of the control group. An Ulcer Index was determined as the inhibition ratio (%).

Where a name gives a salt, the structure may show the parent alone. Where a SMILES comes first, the peptide text is derived from it. [ ]: non-standard residue; d: D form. Trx = NC[C@H]1CC[C@H](C(=O)O)CC1; Sar = CNCC(=O)O

With `CN(C)C(=O)[C@H](Cc1ccccc1)NC(=O)[C@H]1CC[C@H](CN)CC1` [Compound 9, N-(trans-4-aminomethylcyclohexyl-carbonyl)-L-phenylalanine dimethylamide hydrochloride], the inhibition in vivo at 100 mg/kg in the assay on hydrochloric acid ulcer was 73.6%; in assay [1], 77.6%.

Take `CCOC(=O)[C@H](CO)NC(=O)[C@H](Cc1ccccc1)NC(=O)[C@H]1CC[C@H](CN)CC1` [Compound 20, Ethyl N-N-(trans-4-aminomethylcyclohexylcarbonyl)-L-phenylalanyl-L-serinate hydrochloride] (H-[Trx]-Phe-Ser-OEt): the values for the inhibition in vivo at 100 mg/kg (in the assay with hydrochloric acid ulcer; in assay [1]) were 54.3% and 70%, respectively.

For the compound `CCOC(=O)C1CCCC(NC(=O)[C@H](Cc2ccccc2)NC(=O)[C@H]2CC[C@H](CN)CC2)C1` (some centres unmarked) [Compound 6], the inhibition in vivo at 100 mg/kg with hydrochloric acid ulcer was 77.4%.

Consider `CCOC(=O)CCNC(=O)[C@H](Cc1ccccc1)NC(=O)[C@H]1CC[C@H](CN)CC1` [Compound 30], for which the inhibition in vivo at 100 mg/kg in the assay with hydrochloric acid ulcer was determined as 67.5%.

As for `CCOC(=O)c1ccc(NC(=O)[C@H](Cc2ccccc2)NC(=O)[C@H]2CC[C@H](CN)CC2)cc1` [Compound 21], in the assay with hydrochloric acid ulcer, the inhibition in vivo at 100 mg/kg is 89.8%.

Regarding `NC[C@H]1CC[C@H](C(=O)N[C@@H](Cc2ccccc2)C(=O)Nc2cccc(C(N)=O)c2)CC1` [Compound 26], the inhibition in vivo at 100 mg/kg in the assay with hydrochloric acid ulcer is 80.8%.

For `CC(=O)c1ccc(NC(=O)[C@H](Cc2ccccc2)NC(=O)[C@H]2CC[C@H](CN)CC2)cc1` [Compound 8], the inhibition in vivo at 100 mg/kg with hydrochloric acid ulcer was determined as 73.2%; in assay [1] it was 65%.

As for `CN(C)C(=O)[C@H](Cc1ccccc1)NC(=O)c1ccc(C(=N)N)cc1` [Compound 22, N-(4-amidinobenzoyl)-L-phenylalanine dimethylamide hydroiodide], the values for the inhibition in vivo at 100 mg/kg (with hydrochloric acid ulcer; in assay [1]) were 86% and 76.2%, respectively.

With `CCOC(=O)c1ccccc1NC(=O)[C@H](Cc1ccccc1)NC(=O)[C@H]1CC[C@H](CN)CC1` [Compound 3], the inhibition in vivo at 100 mg/kg in the assay on hydrochloric acid ulcer was determined as 91.4%; in assay [1], 52.2%.

On to `CC(=O)c1ccc(NC(=O)[C@H](Cc2ccccc2)NC(=O)c2ccc(CN)cc2)cc1` [Compound 16, N-(4-aminomethylbenzoyl)-L-phenylalanine 4-acetylanilide hydrochloride], for which, in the assay with hydrochloric acid ulcer, the inhibition in vivo at 100 mg/kg stood at 96.6%.

On to `NCc1ccc(C(=O)N[C@@H](Cc2ccccc2)C(=O)Nc2ccc(C(N)=O)cc2)cc1` [Compound 27, N-(4-aminomethylbenzoyl)-L-phenylalanine 4-carbamoylanilide hydrochloride], for which, in the assay on hydrochloric acid ulcer, the inhibition in vivo at 100 mg/kg turned out to be 78.1%.

Consider `NC[C@H]1CC[C@H](C(=O)N[C@@H](Cc2ccc(OCc3ccccc3)cc2)C(=O)Nc2cccnc2)CC1` [Compound 31], for which the inhibition in vivo at 100 mg/kg with hydrochloric acid ulcer stood at 92.3%; in assay [1], 60%.

On to `CCOC(=O)c1cccc(NC(=O)[C@H](Cc2ccccc2)NC(=O)[C@H]2CC[C@H](CN)CC2)c1` [Compound 18], for which the inhibition in vivo at 100 mg/kg with hydrochloric acid ulcer was 89.2%.

For `CCOC(=O)CN(C)C(=O)[C@H](Cc1ccccc1)NC(=O)[C@H]1CC[C@H](CN)CC1` [Compound 25] (H-[Trx]-Phe-[Sar]-OEt), the inhibition in vivo at 100 mg/kg in the assay on hydrochloric acid ulcer was found to be 57.3%.

Regarding `NCc1ccc(C(=O)N[C@@H](Cc2ccccc2)C(N)=O)cc1` [Compound 2, N-(4-aminomethylbenzoyl)-L-phenyl-alanineamide hydrochloride], the inhibition in vivo at 100 mg/kg in the assay on hydrochloric acid ulcer was 58.2%.

On to `CC1CCC(NC(=O)[C@H](Cc2ccccc2)NC(=O)c2ccc(NC(=N)N)cc2)CC1` (mixture of isomers) [Compound 12, N-(4-guanidinobenzoyl)-L-phenylalanine 4-cis/trans-methylcyclohexylamide hydrochloride], for which the inhibition in vivo at 100 mg/kg is 89.4% with hydrochloric acid ulcer and 65.8% in assay [1].

`NC[C@H]1CC[C@H](C(=O)N[C@@H](Cc2ccccc2)C(=O)Nc2ccc(C(N)=O)cc2)CC1` [Compound 13, N-(trans-4-aminomethylcyclohexyl-carbonyl)-L-phenylalanine 4-carbamoylanilide hydrochloride]: the inhibition in vivo at 100 mg/kg was determined as 85.7% with hydrochloric acid ulcer and 64.8% in assay [1].

Regarding `CC(C)(C)NC(=O)[C@H](Cc1ccccc1)NC(=O)[C@H]1CC[C@H](CN)CC1` [Compound 15], the values for the inhibition in vivo at 100 mg/kg (with hydrochloric acid ulcer; in assay [1]) were 73.1% and 76.4%, respectively.

Take `CNC(=O)[C@H](Cc1ccccc1)NC(=O)[C@H]1CC[C@H](CN)CC1` [Compound 7, N-(trans-4-aminomethylcyclohexyl-carbonyl)-L-phenylalanine methylamide hydrochloride]: the inhibition in vivo at 100 mg/kg with hydrochloric acid ulcer stood at 52.6%.

`CNC(=O)c1ccc(NC(=O)[C@H](Cc2ccccc2)NC(=O)[C@H]2CC[C@H](CN)CC2)cc1` [Compound 23, N-(trans-4-aminomethylcyclohexylcarbonyl)-L-phenylalanine 4-methylcarbamoylanilide hydrochloride]: in the assay with hydrochloric acid ulcer, the inhibition in vivo at 100 mg/kg was 79.9%.

For `NC[C@H]1CC[C@H](C(=O)N[C@@H](Cc2ccccc2)C(N)=O)CC1` [Compound 1, N-[trans-4-aminomethylcyclohexyl-carbonyl]-L-phenylalanine amide hydrochloride], the inhibition in vivo at 100 mg/kg in the assay on hydrochloric acid ulcer was 77.1%; in assay [1] it was 88.2%.

Take `NC[C@H]1CC[C@H](C(=O)N[C@@H](Cc2ccccc2)C(=O)Nc2ccc(C(=O)O)cc2)CC1` [Compound 14, N-(trans-4-aminomethylcyclohexylcarbonyl)-L-phenylalanine 4-hydroxycarbonylanilide hydrochloride]: the inhibition in vivo at 100 mg/kg in the assay on hydrochloric acid ulcer is 74.8%.

On to `CC(=O)c1ccc(NC(=O)[C@H](Cc2ccccc2)NC(=O)c2ccc(C(=N)N)cc2)cc1` [Compound 29], for which the inhibition in vivo at 100 mg/kg in the assay on hydrochloric acid ulcer came to 81%; in assay [1], 83.7%.

On to `N=C(N)c1ccc(C(=O)N[C@@H](Cc2ccccc2)C(=O)Nc2ccc(C(N)=O)cc2)cc1` [Compound 28, N-(4-amidinobenzoyl)-L-phenylalanine 4-carbamoylanilide methanesulfonate], for which the inhibition in vivo at 100 mg/kg with hydrochloric acid ulcer is 69.8%; in assay [1] it was 57.4%.

`CCOC(=O)c1ccc(CNC(=O)[C@H](Cc2ccccc2)NC(=O)[C@H]2CC[C@H](CN)CC2)cc1` [Compound 10]: the inhibition in vivo at 100 mg/kg in the assay on hydrochloric acid ulcer worked out at 60.4%; in assay [1], 86.1%.

For `CCOC(=O)C1CCN(C(=O)[C@H](Cc2ccccc2)NC(=O)[C@H]2CC[C@H](CN)CC2)CC1` [Compound 11], the values for the inhibition in vivo at 100 mg/kg (in the assay with hydrochloric acid ulcer; in assay [1]) were 68.4% and 85.2%, respectively.

As for `CCOC(=O)C1CCC(NC(=O)[C@H](Cc2ccccc2)NC(=O)[C@H]2CC[C@H](CN)CC2)CC1` (some centres unmarked) [Compound 4], the inhibition in vivo at 100 mg/kg in the assay on hydrochloric acid ulcer stood at 71.4%; in assay [1], 74.6%.

`CC(=O)c1ccc(NC(=O)C(Cc2cccc(Oc3ccccc3)c2)NC(=O)[C@H]2CC[C@H](CN)CC2)cc1` (mixture of isomers) [Compound 32, N-(trans-4-aminomethylcyclohexylcarbonyl)-3-phenoxy-DL-phenylalanine 4-acetylanilide hydrochloride]: the inhibition in vivo at 100 mg/kg with hydrochloric acid ulcer came out at 86.4%; in assay [1], 67.4%.

Regarding `CN(C)C(=O)[C@H](Cc1ccccc1)NC(=O)[C@H]1CC[C@H](CNC(=N)N)CC1` [Compound 19, N-(trans-4-guanidinomethylcyclohexylcarbonyl)-L-phenylalanine dimethylamide methanesulfonate], in the assay on hydrochloric acid ulcer, the inhibition in vivo at 100 mg/kg is 52.5%.

In the case of `CN(C)C(=O)c1ccc(NC(=O)[C@H](Cc2ccccc2)NC(=O)[C@H]2CC[C@H](CN)CC2)cc1` [Compound 24], the figures for the inhibition in vivo at 100 mg/kg (in the assay on hydrochloric acid ulcer; in assay [1]) were 82.6% and 70.6%, respectively.

As for `CN(C)C(=O)[C@H](Cc1ccccc1)NC(=O)c1ccc(CN)cc1` [Compound 17], the inhibition in vivo at 100 mg/kg with hydrochloric acid ulcer turned out to be 57.5%.

As to `CCOC(=O)CNC(=O)[C@H](Cc1ccccc1)NC(=O)[C@H]1CC[C@H](CN)CC1` [Compound 5] (H-[Trx]-Phe-Gly-OEt), the inhibition in vivo at 100 mg/kg in the assay on hydrochloric acid ulcer is 53.3%; in assay [1] it was 76%.

(Values after patent publication US4954512A, “Anti-ulcer composition” (Okamoto; Shosuke, priority 1987, dated 1990).)
